Assay results published in ChEMBL document CHEMBL1201862, “PubChem BioAssay data set” (2004).
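Five concentrations, 48 hours, 96-well plates. GI50 = concentration required for 50% inhibition of growth.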 The source made the active and inactive calls. Rule as the data show it: active = GI50 up to about 1.1 µM and inactive = higher.

Experiments:
Assay in all cases: NCI tumour cell line growth inhibition, 48 h
[1] = system: 786-0
[2] = system: A498
[3] = system: A549
[4] = system: ACHN
[5] = system: BT-549
[6] = system: CAKI-1
[7] = system: CCRF-CEM
[8] = system: COLO 205
[9] = system: DU-145
[10] = system: EKVX
[11] = system: HCC 2998
[12] = system: HCT-116
[13] = system: HCT-15
[14] = system: HL-60
[15] = system: HOP-62
[16] = system: HOP-92
[17] = system: HT-29
[18] = system: Hs-578T
[19] = system: IGROV-1
[20] = system: K562
[21] = system: KM12
[22] = system: LOX IMVI
[23] = system: M14
[24] = system: MDA-MB-231
[25] = system: MDA-MB-435
[26] = system: MDA-N
[27] = system: MOLT-4
[28] = system: Malme-3M
[29] = system: NCI-H226
[30] = system: NCI-H23
[31] = system: NCI-H460
[32] = system: NCI/ADR-RES
[33] = system: OVCAR-3
[34] = system: OVCAR-4
[35] = system: OVCAR-5
[36] = system: OVCAR-8
[37] = system: PC-3
[38] = system: RPMI-8226
[39] = system: RXF 393
[40] = system: SF-268
[41] = system: SF-295
[42] = system: SK-MEL-28
[43] = system: SK-MEL-2
[44] = system: SK-MEL-5
[45] = system: SK-OV-3
[46] = system: SN12C
[47] = system: SNB-19
[48] = system: SNB-75
[49] = system: SW-620
[50] = system: T47D
[51] = system: TK-10
[52] = system: U-251
[53] = system: UACC-257
[54] = system: UACC-62
[55] = system: UO-31
[56] = system: MCF7
[57] = system: NCI-H522
[58] = system: SF-539

COc1cc(OC)cc(-c2nc(O)c3ccccc3n2)c1
GI50 [1]: 25.4 µM (inactive)
GI50 [2]: 31.1 µM (inactive)
GI50 [3]: > 100 µM (inactive)
GI50 [4]: > 100 µM (inactive)
GI50 [5]: > 100 µM (inactive)
GI50 [6]: > 100 µM (inactive)
GI50 [7]: > 100 µM (inactive)
GI50 [8]: > 100 µM (inactive)
GI50 [9]: > 100 µM (inactive)
GI50 [10]: > 100 µM (inactive)
GI50 [11]: > 100 µM (inactive)
GI50 [12]: 42.5 µM (inactive)
GI50 [13]: > 100 µM
GI50 [14]: > 100 µM (inactive)
GI50 [15]: 38.9 µM (inactive)
GI50 [16]: > 100 µM (inactive)
GI50 [17]: > 100 µM (inactive)
GI50 [18]: 38.8 µM (inactive)
GI50 [19]: 93.1 µM (inactive)
GI50 [20]: > 100 µM (inactive)
GI50 [21]: > 100 µM (inactive)
GI50 [22]: > 100 µM (inactive)
GI50 [23]: > 100 µM (inactive)
GI50 [24]: 86.1 µM (inactive)
GI50 [25]: > 100 µM (inactive)
GI50 [26]: > 100 µM (inactive)
GI50 [27]: > 100 µM (inactive)
GI50 [28]: > 100 µM (inactive)
GI50 [29]: > 100 µM (inactive)
GI50 [30]: > 100 µM (inactive)
GI50 [31]: 28.3 µM (inactive)
GI50 [32]: 40.7 µM (inactive)
GI50 [33]: > 100 µM (inactive)
GI50 [34]: > 100 µM (inactive)
GI50 [35]: > 100 µM (inactive)
GI50 [36]: 24.6 µM (inactive)
GI50 [37]: > 100 µM (inactive)
GI50 [38]: > 100 µM (inactive)
GI50 [39]: 29.8 µM (inactive)
GI50 [40]: 63.2 µM (inactive)
GI50 [41]: 29 µM (inactive)
GI50 [42]: > 100 µM (inactive)
GI50 [43]: > 100 µM (inactive)
GI50 [44]: > 100 µM (inactive)
GI50 [45]: 22.8 µM (inactive)
GI50 [46]: > 100 µM (inactive)
GI50 [47]: 49 µM (inactive)
GI50 [48]: 29.6 µM (inactive)
GI50 [49]: > 100 µM (inactive)
GI50 [50]: > 100 µM (inactive)
GI50 [51]: 43.5 µM (inactive)
GI50 [52]: 39.3 µM (inactive)
GI50 [53]: > 100 µM (inactive)
GI50 [54]: > 100 µM (inactive)
GI50 [55]: 71.9 µM (inactive)

O=C(c1ccc(O)c([N+](=O)[O-])c1)c1ccc(O)c([N+](=O)[O-])c1
GI50 [1]: > 100 µM (inactive)
GI50 [2]: > 100 µM (inactive)
GI50 [3]: 89.9 µM (inactive)
GI50 [4]: > 100 µM (inactive)
GI50 [5]: 33 µM (inactive)
GI50 [6]: > 100 µM (inactive)
GI50 [7]: 31.9 µM (inactive)
GI50 [8]: > 100 µM (inactive)
GI50 [9]: > 100 µM (inactive)
GI50 [10]: > 100 µM (inactive)
GI50 [11]: > 100 µM (inactive)
GI50 [12]: > 100 µM (inactive)
GI50 [13]: > 100 µM
GI50 [15]: > 100 µM (inactive)
GI50 [16]: 24 µM (inactive)
GI50 [17]: > 100 µM (inactive)
GI50 [18]: 46.3 µM (inactive)
GI50 [19]: > 100 µM (inactive)
GI50 [20]: 50.1 µM (inactive)
GI50 [21]: 35.2 µM (inactive)
GI50 [22]: > 100 µM (inactive)
GI50 [23]: > 100 µM (inactive)
GI50 [56]: 93.1 µM (inactive)
GI50 [24]: > 100 µM (inactive)
GI50 [25]: 20.8 µM (inactive)
GI50 [26]: 53.7 µM (inactive)
GI50 [28]: 37 µM (inactive)
GI50 [29]: > 100 µM (inactive)
GI50 [30]: > 100 µM (inactive)
GI50 [31]: > 100 µM (inactive)
GI50 [57]: > 100 µM (inactive)
GI50 [32]: 43.6 µM (inactive)
GI50 [33]: > 100 µM (inactive)
GI50 [34]: > 100 µM (inactive)
GI50 [35]: > 100 µM (inactive)
GI50 [36]: > 100 µM (inactive)
GI50 [37]: 66.5 µM (inactive)
GI50 [38]: 3.33 µM (inactive)
GI50 [39]: > 100 µM (inactive)
GI50 [40]: > 100 µM (inactive)
GI50 [41]: 46.3 µM (inactive)
GI50 [58]: 53.5 µM (inactive)
GI50 [42]: 47.2 µM (inactive)
GI50 [43]: > 100 µM (inactive)
GI50 [44]: > 100 µM (inactive)
GI50 [45]: > 100 µM (inactive)
GI50 [46]: > 100 µM (inactive)
GI50 [47]: > 100 µM (inactive)
GI50 [48]: 28.7 µM (inactive)
GI50 [49]: 55.6 µM (inactive)
GI50 [50]: > 100 µM (inactive)
GI50 [51]: > 100 µM (inactive)
GI50 [52]: > 100 µM (inactive)
GI50 [53]: 81.7 µM (inactive)
GI50 [54]: 37.1 µM (inactive)
GI50 [55]: 66.2 µM (inactive)
